Measurements: patent US9771341B2, “Piperazine carbamates and methods of making and using same” (Abide Therapeutics, Inc., priority 2015, dated 2017)

Legend:
Format in all cases: biochemical
[1] = target: T1, ABHD6 (Mus musculus, UniProt Q8R2Y0); test: In vitro competitive activity-based protein profiling (mouse), ABHD6; settings: for inhibition at 1 µM: mouse proteome, in vitro, read-out: % Inhibition at 1 μM ABHD6; for IC50: mouse brain membrane fraction or cell lysates, 30 min preincubation at 37° C, FP-Rh probe
T1 construct: Proteomes (mouse brain membrane fraction or cell lysates); from tissue; host or cells: mouse brain membrane fraction (or unspecified cell lysates)
T1 sequence (Q8R2Y0 1-336): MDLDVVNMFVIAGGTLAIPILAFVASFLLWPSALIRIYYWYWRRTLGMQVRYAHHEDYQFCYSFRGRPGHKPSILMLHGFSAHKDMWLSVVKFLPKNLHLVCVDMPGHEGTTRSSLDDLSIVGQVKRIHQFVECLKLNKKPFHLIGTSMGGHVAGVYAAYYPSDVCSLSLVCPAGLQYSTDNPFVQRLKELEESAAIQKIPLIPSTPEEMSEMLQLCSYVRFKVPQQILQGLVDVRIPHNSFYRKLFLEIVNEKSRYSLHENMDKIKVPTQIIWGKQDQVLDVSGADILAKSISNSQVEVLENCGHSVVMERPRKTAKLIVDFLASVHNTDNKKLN
Procedure: (§1) In Vitro Competitive Activity-Based Protein Profiling (Mouse).
(§2) Proteomes (mouse brain membrane fraction or cell lysates) (50 μL, 1.0 mg/mL total protein concentration) were preincubated with varying concentrations of inhibitors at 37° C. After 30 min, FP-Rh (1.0 μL, 50 μM in DMSO) was added and the mixture was incubated for another 30 min at 37° C. Reactions were quenched with SDS loading buffer (50 μL-4×) and run on SDS-PAGE.

[2] = target: T2, MAGL (Mus musculus, UniProt O35678); test: In vitro competitive activity-based protein profiling (mouse), MAGL; settings: for inhibition at 1 µM: mouse proteome, in vitro, read-out: % Inhibition at 1 μM MAGL; for IC50: mouse brain membrane fraction or cell lysates, 30 min preincubation at 37° C, FP-Rh probe
T2 construct: Proteomes (mouse brain membrane fraction or cell lysates); from tissue; host or cells: mouse brain membrane fraction (or unspecified cell lysates)
T2 sequence (O35678 1-303): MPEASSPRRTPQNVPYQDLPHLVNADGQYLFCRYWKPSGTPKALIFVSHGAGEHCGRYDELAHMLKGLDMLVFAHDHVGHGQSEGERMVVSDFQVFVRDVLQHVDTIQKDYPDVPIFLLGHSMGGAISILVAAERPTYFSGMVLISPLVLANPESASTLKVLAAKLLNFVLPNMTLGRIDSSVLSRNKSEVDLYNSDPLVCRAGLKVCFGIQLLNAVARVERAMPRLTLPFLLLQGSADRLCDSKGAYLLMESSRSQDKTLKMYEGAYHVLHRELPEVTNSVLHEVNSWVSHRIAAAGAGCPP
Procedure: as §1, §2

[3] = target: T3, FAAH (Mus musculus, UniProt O08914); test: In vitro competitive activity-based protein profiling (mouse), FAAH; settings: for inhibition at 1 µM: mouse proteome, in vitro; for IC50: mouse brain membrane fraction or cell lysates, 30 min preincubation at 37° C, FP-Rh probe
T3 construct: Proteomes (mouse brain membrane fraction or cell lysates); from tissue; host or cells: mouse brain membrane fraction (or unspecified cell lysates)
T3 sequence (O08914 1-579): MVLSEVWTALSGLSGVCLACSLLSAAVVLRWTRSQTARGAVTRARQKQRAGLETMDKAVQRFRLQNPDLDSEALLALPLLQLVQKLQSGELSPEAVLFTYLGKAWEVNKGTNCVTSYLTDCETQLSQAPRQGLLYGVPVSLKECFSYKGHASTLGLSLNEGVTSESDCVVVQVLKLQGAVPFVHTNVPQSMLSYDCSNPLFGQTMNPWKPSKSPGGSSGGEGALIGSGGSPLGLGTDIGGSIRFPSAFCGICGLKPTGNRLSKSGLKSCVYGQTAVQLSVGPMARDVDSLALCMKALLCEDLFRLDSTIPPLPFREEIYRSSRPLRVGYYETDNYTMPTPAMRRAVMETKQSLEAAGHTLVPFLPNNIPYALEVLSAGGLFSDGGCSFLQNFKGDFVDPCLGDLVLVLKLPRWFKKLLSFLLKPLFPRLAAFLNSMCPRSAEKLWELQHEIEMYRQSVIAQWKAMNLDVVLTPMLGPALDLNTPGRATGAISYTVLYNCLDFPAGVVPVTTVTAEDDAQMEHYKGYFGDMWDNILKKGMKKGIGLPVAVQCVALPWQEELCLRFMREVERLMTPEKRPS
Procedure: as §1
as §2, with “SDS-PAGE. Following gel imaging, serine hydrolase activity was determined by measuring fluorescent intensity of gel bands corresponding to MAGL, ABHD6 and FAAH using ImageJ 1.43u software.” for “SDS-PAGE.”

Row | SMILES | inhibition at 1 µM [1] | IC50 [1] | inhibition at 1 µM [2] | IC50 [2] | inhibition at 1 µM [3] | IC50 [3]
1 | CCOC(=O)C1CCCN1c1cc(CN2CCN(C(=O)OC(C(F)(F)F)C(F)(F)F)CC2)ccc1C(F)(F)F (stereo not drawn) [Example 78, 1,1,1,3,3,3-hexafluoropropan-2-yl 4-(3-(2-(ethoxycarbonyl)pyrrolidin-1-yl)-4-(trifluoromethyl)benzyl)piperazine-1-carboxylate] | > 75% | 100 to 1000 nM | > 75% | < 100 nM | < 25% | > 1000 nM
2 | C#CCO[C@@H]1CCN(c2cc(C(F)(F)F)ccc2CN2CCN(C(=O)OC(C(F)(F)F)C(F)(F)F)CC2)C1 [Example 2, 1,1,1,3,3,3-hexafluoropropan-2-yl (R)-4-(2-(3-(prop-2-yn-1-yloxy)pyrrolidin-1-yl)-4-(trifluoromethyl)benzyl)piperazine-1-carboxylate] |  | > 1000 nM |  | < 100 nM |  | > 1000 nM
3 | Cc1cc(C)n(C2CN(c3cc(Cl)ccc3CN3CCN(C(=O)OC(C(F)(F)F)C(F)(F)F)CC3)C2)n1 [Example 38, 1,1,1,3,3,3-hexafluoropropan-2-yl 4-(4-chloro-2-(3-(3,5-dimethyl-1H-pyrazol-1-yl)azetidin-1-yl)benzyl)piperazine-1-carboxylate] | < 25% | 100 to 1000 nM | > 75% | < 100 nM | < 25% | > 1000 nM
4 | O=C(O)C1CCN(c2cc(CN3CCN(C(=O)OC(C(F)(F)F)C(F)(F)F)CC3)cc(C(F)(F)F)c2)CC1 [Example 94, 1-(3-((4-(((1,1,1,3,3,3-hexafluoropropan-2-yl)oxy)carbonyl)piperazin-1-yl)methyl)-5-(trifluoromethyl)phenyl)piperidine-4-carboxylic acid] | > 75% | < 100 nM | 25 to 75% | 100 to 1000 nM | < 25% | > 1000 nM
5 | Cc1c(CN2CCN(C(=O)OC(C(F)(F)F)C(F)(F)F)CC2)cccc1CN1CCN(S(C)(=O)=O)CC1 [Example 8, 1,1,1,3,3,3-hexafluoropropan-2-yl 4-(2-methyl-3-((4-(methylsulfonyl)piperazin-1-yl)methyl)benzyl)piperazine-1-carboxylate] | > 75% | < 100 nM | > 75% | < 100 nM | < 25% | > 1000 nM
6 | COc1c(CN2CCC(F)CC2)cccc1CN1CCN(C(=O)OC(C(F)(F)F)C(F)(F)F)CC1 [Example 9, 1,1,1,3,3,3-hexafluoropropan-2-yl 4-(3-((4-fluoropiperidin-1-yl)methyl)-2-methoxybenzyl)piperazine-1-carboxylate] | > 75% | 100 to 1000 nM | > 75% | < 100 nM | < 25% | > 1000 nM
7 | CC(=O)N[C@H]1CCN(Cc2cccc(CN3CCN(C(=O)OC(C(F)(F)F)C(F)(F)F)CC3)c2C)C1 [Example 18, 1,1,1,3,3,3-hexafluoropropan-2-yl (S)-4-(3-((3-acetamidopyrrolidin-1-yl)methyl)-2-methylbenzyl)piperazine-1-carboxylate] | > 75% | 100 to 1000 nM | > 75% | 100 to 1000 nM | < 25% | > 1000 nM
8 | O=C(O)[C@@H]1CCCN1c1cc(CN2CCN(C(=O)OC(C(F)(F)F)C(F)(F)F)CC2)ccc1C(F)(F)F [Example 77, (5-((4-(((1,1,1,3,3,3-hexafluoropropan-2-yl)oxy)carbonyl)piperazin-1-yl)methyl)-2-(trifluoromethyl)phenyl)proline] | > 75% | > 1000 nM | > 75% | 100 to 1000 nM | < 25% | > 1000 nM
9 | Cc1c(CN2CCC(NS(C)(=O)=O)CC2)cccc1CN1CCN(C(=O)OC(C(F)(F)F)C(F)(F)F)CC1 [Example 10, 1,1,1,3,3,3-hexafluoropropan-2-yl 4-(2-methyl-3-((4-(methylsulfonamido)piperidin-1-yl)methyl)benzyl)piperazine-1-carboxylate] | > 75% | 100 to 1000 nM | > 75% | < 100 nM | < 25% | > 1000 nM
10 | Cc1c(CN2CCCC2)cccc1CN1CCN(C(=O)OC(C(F)(F)F)C(F)(F)F)CC1 [Example 13, 1,1,1,3,3,3-hexafluoropropan-2-yl 4-(2-methyl-3-(pyrrolidin-1-ylmethyl)benzyl)piperazine-1-carboxylate] | > 75% | 100 to 1000 nM | > 75% | 100 to 1000 nM | < 25% | > 1000 nM
11 | Cc1c(CN2CCN(C(=O)OC(C(F)(F)F)C(F)(F)F)CC2)cccc1CN1CCCC[C@@H]1C [Example 20, 1,1,1,3,3,3-hexafluoropropan-2-yl (S)-4-(2-methyl-3-((2-methylpiperidin-1-yl)methyl)benzyl)piperazine-1-carboxylate] | > 75% | 100 to 1000 nM | > 75% | 100 to 1000 nM | < 25% | > 1000 nM
12 | CC(=O)N[C@@H]1CCN(Cc2cccc(CN3CCN(C(=O)OC(C(F)(F)F)C(F)(F)F)CC3)c2C)C1 [Example 17, 1,1,1,3,3,3-hexafluoropropan-2-yl (R)-4-(3-((3-acetamidopyrrolidin-1-yl)methyl)-2-methylbenzyl)piperazine-1-carboxylate] | > 75% | 100 to 1000 nM | > 75% | 100 to 1000 nM | < 25% | > 1000 nM
13 | CC(=O)N1CCN(Cc2cccc(CN3CCN(C(=O)OC(C(F)(F)F)C(F)(F)F)CC3)c2C)CC1 [Example 14, 1,1,1,3,3,3-hexafluoropropan-2-yl 4-(3-((4-acetylpiperazin-1-yl)methyl)-2-methylbenzyl)piperazine-1-carboxylate] | > 75% | < 100 nM | > 75% | < 100 nM | < 25% | > 1000 nM
14 | O=C(OC(C(F)(F)F)C(F)(F)F)N1CCN(Cc2ccc(C(F)(F)F)c(N3CCCC3CO)c2)CC1 (stereo not drawn) [Example 79, 1,1,1,3,3,3-hexafluoropropan-2-yl 4-(3-(2-(hydroxymethyl)pyrrolidin-1-yl)-4-(trifluoromethyl)benzyl)piperazine-1-carboxylate] | > 75% | < 100 nM | > 75% | < 100 nM | < 25% | > 1000 nM
15 | Cc1c(CN2CCN(C(=O)OC(C(F)(F)F)C(F)(F)F)CC2)cccc1CN1CCCC[C@H]1C [Example 19, 1,1,1,3,3,3-hexafluoropropan-2-yl (R)-4-(2-methyl-3-((2-methylpiperidin-1-yl)methyl)benzyl)piperazine-1-carboxylate] | > 75% | 100 to 1000 nM | > 75% | 100 to 1000 nM | < 25% | > 1000 nM
